Data published in BindingDB's records for doi:10.1016/j.bmcl.2005.05.109 (Merck Research Laboratories, 2005).

Test: Inhibition concentration (binding affinity) against […] melanocortin receptor 4 by displacement of [125I]NDP-alpha-MSH from the human receptors expressed in CHO cells

IC50: 7 µM
Compound: CN1C[C@H]2CC[C@@H]1[C@H](C(=O)N[C@H](Cc1ccc(F)cc1)C(=O)N1CCC(C(=O)NC(C)(C)C)(C3CCCCC3)CC1)C2 [(1R,4S,6R)-2-Methyl-2-aza-bicyclo[2.2.2]octane-6-carboxylic acid [(R)-2-(4-tert-butylcarbamoyl-4-cyclohexyl-piperidin-1-yl)-1-(4-fluoro-benzyl)-2-oxo-ethyl]-amide]
